Laboratory results taken from patent publication EP4603105A1, “PHARMACEUTICAL COMPOSITION CONTAINING CYCLIC COMPOUND HAVING SELECTIVE KRAS INHIBITORY EFFECT AGAINST HRAS AND NRAS” (CHUGAI SEIYAKU KABUSHIKI KAISHA, priority 2022, dated 2024).
pIC50: −log10 of the molar value. Where a SMILES comes first, the peptide text is derived from it. Bridges are numbered along the chain shown (N, C = ends). [ ]: non-standard residue; d: D form. The star is where a group is joined. hPhe(3-Cl-4-CF3) = N[C@@H](CCc1ccc(C(F)(F)F)c(Cl)c1)C(=O)O; NPrPhe(4-CF3) = CCCN[C@@H](Cc1ccc(C(F)(F)F)cc1)C(=O)O; Morpholine(3S-CO) = O=C(O)[C@@H]1COCCN1; NMeGly(cPent) = CN[C@H](C(=O)O)C1CCCC1; Pro(4,4-F2) = O=C(O)[C@@H]1CC(F)(F)CN1; Ac4c(3,3-Me2) = CC1(C)CC(N)(C(=O)O)C1; NEtPhe = CCN[C@@H](Cc1ccccc1)C(=O)O; Hyp = O=C(O)[C@@H]1C[C@@H](O)CN1; NMeD = CN[C@@H](CC(=O)O)C(=O)O; NMeL = CN[C@@H](CC(C)C)C(=O)O; Morpholide = C1CN(*)CCO1; Ac5c = NC1(C(=O)O)CCCC1; Aze = O=C(O)[C@@H]1CCN1; Ac4c = NC1(C(=O)O)CCC1; Sar = CNCC(=O)O

Legend:
[1] = target: GDP-bound NRAS wild-type protein (Homo sapiens, UniProt P01111); assay: Binding to NRAS by surface plasmon resonance (SPR), KD and KD ratio to KRAS
In short: (§1)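 Running buffer contained 10 µM GDP and 10 mM MgCl2 to keep RAS in the GDP state, with 4% DMSO at pH 7.4. Compounds were flowed at 100 µL/min in 75 s steps of rising concentration over captured biotin-Avi RAS at 30°C. Sensorgrams were fitted 1:1 for KD.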

HRAS wild-type protein = HRAS wild-type protein (Homo sapiens, UniProt P01112); assay: Binding to HRAS by surface plasmon resonance (SPR), KD and KD ratio to KRAS
In short: as §1

[2] = tested on: human lung cancer strain NCI-H441; format: cell-based
In short: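 Step one: dispense the test compound in serial DMSO dilutions. Step three: add the reagent and measure […].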

[3] = ratio of the KD value with respect to GDP-bound NRAS wild-type protein to the KD value with respect to KRAS
[4] = ratio of the KD value with respect to HRAS wild-type protein to the KD value with respect to KRAS
[5] = ratio of KD for GDP-bound NRAS wild-type protein to KD for KRAS
[6] = ratio of KD for HRAS wild-type protein to KD for KRAS

Chain of GDP-bound NRAS wild-type protein (P01111 whole entry): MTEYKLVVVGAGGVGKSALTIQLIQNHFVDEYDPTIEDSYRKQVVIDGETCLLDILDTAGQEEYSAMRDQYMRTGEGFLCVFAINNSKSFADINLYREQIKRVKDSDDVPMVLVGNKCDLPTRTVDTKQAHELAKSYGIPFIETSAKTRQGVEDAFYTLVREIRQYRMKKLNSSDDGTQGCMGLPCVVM
Chain of HRAS wild-type protein (P01112 whole entry): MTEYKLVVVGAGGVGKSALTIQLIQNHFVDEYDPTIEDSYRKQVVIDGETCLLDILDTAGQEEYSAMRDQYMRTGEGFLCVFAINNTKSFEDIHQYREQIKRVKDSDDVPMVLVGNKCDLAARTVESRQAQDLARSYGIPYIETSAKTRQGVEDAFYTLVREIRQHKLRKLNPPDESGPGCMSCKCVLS

pIC50 [2]	SMILES	NRAS /KRAS [1, 3]	HRAS /KRAS (HRAS wild-type protein; [4])	NRAS /KRAS [1, 5]	HRAS /KRAS (HRAS wild-type protein; [6])
7.30	CC[C@H](C)[C@@H]1NC(=O)[C@H](CC(C)C)N(C)C(=O)C[C@@H](C(=O)N2CCOCC2)N(C)C(=O)[C@H](C2CCCC2)N(C)C(=O)C2(CCCC2)NC(=O)[C@@H]2CCCN2C(=O)[C@H](CCc2cc(F)c(C(F)(F)F)c(F)c2)NC(=O)CN(C)C(=O)[C@H](Cc2ccc(C(F)(F)F)cc2)N2CCCCC[C@@H](C2=O)N(C)C(=O)CN(C)C1=O [PP0490]	B (a compound having 3 or more and less than 10 is denoted as B)	B (a compound having 3 or more and less than 10 is denoted as B)		
8.04	CCCN1C(=O)CN(C)C(=O)CN(C)C(=O)[C@H]([C@@H](C)OC)NC(=O)[C@H](CC(C)C)N(C)C(=O)C[C@@H](C(=O)N2CCOCC2)N(C)C(=O)[C@H](C2CCCC2)N(C)C(=O)C2(CC(C)(C)C2)NC(=O)[C@@H]2CCCN2C(=O)[C@H](CCc2ccc(C(F)(F)F)c(Cl)c2)NC(=O)CN(C)C(=O)[C@@H]1Cc1ccc(C(F)(F)F)cc1 [PP1963] ([NMeL]T(Me)[Sar][Sar][NPrPhe(4-CF3)][Sar][hPhe(3-Cl-4-CF3)]P[Ac4c(3,3-Me2)][NMeGly(cPent)][NMeD]-Morpholide; lactam N-11)	B (a compound having 3 or more and less than 10 is denoted as B)	C (A compound having a KD ratio of 0.1 or more and less than 3 is denoted as C)		
7.77	CC[C@H](C)[C@@H]1NC(=O)[C@H](CC(C)C)N(C)C(=O)C[C@@H](C(=O)N2CCOCC2)N(C)C(=O)[C@H](C2CCCC2)N(C)C(=O)C2(CCCC2)NC(=O)[C@@H]2CCCN2C(=O)[C@H](CCc2ccc(C(F)(F)F)c(Cl)c2)NC(=O)CN(C)C(=O)[C@H](Cc2ccccc2)N(CC)C(=O)CN(C)C(=O)CN(C)C1=O [PP0210] ([NMeL]I[Sar][Sar][NEtPhe][Sar][hPhe(3-Cl-4-CF3)]P[Ac5c][NMeGly(cPent)][NMeD]-Morpholide; lactam N-11)			C (A compound having a KD ratio of 0.1 or more and less than 3 is denoted as C)	C (A compound having a KD ratio of 0.1 or more and less than 3 is denoted as C)
8.72	CCCN1C(=O)CN(C)C(=O)CN(C)C(=O)[C@H]([C@@H](C)CC)NC(=O)[C@H](CC(C)C)N(C)C(=O)C[C@@H](C(=O)N2CCOCC2)N(C)C(=O)[C@H](C2CCCC2)N(C)C(=O)C2(CCCC2)NC(=O)[C@@H]2C[C@@H](OC)CN2C(=O)[C@H](CCc2ccc(C(F)(F)F)c(Cl)c2)NC(=O)CN(C)C(=O)[C@@H]1Cc1ccc(C(F)(F)F)cc1 [PP0262] ([NMeL]I[Sar][Sar][NPrPhe(4-CF3)][Sar][hPhe(3-Cl-4-CF3)][Hyp](Me)[Ac5c][NMeGly(cPent)][NMeD]-Morpholide; lactam N-11)			B (a compound having 3 or more and less than 10 is denoted as B)	B (a compound having 3 or more and less than 10 is denoted as B)
7.99	CCO[C@@H]1C[C@H]2C(=O)NC3(CCC3)C(=O)N(C)[C@@H](C3CCCC3)C(=O)N(C)[C@H](C(=O)N(C)C)CC(=O)N(C)[C@@H](CC)C(=O)N[C@@H]([C@@H](C)CC)C(=O)N(C)CC(=O)N(C)[C@H]3CCCCN(C3=O)[C@@H](Cc3ccc(C(F)(F)F)cc3)C(=O)N(C)CC(=O)N[C@@H](CCc3cc(Cl)c(Cl)c(Cl)c3)C(=O)N2C1 [PP0988]			C (A compound having a KD ratio of 0.1 or more and less than 3 is denoted as C)	B (a compound having 3 or more and less than 10 is denoted as B)
7.30	CCCN(C)C(=O)[C@@H]1CC(=O)N(C)[C@@H](CCOC)C(=O)N[C@@H]([C@@H](C)CC)C(=O)N(C)CC(=O)N(C)[C@H]2C/C=C\CCN(C2=O)[C@@H](Cc2ccc(C(F)(F)F)cc2)C(=O)N(C)CC(=O)N[C@@H](CCc2cc(F)c(C(F)(F)F)c(F)c2)C(=O)N2C[C@@H](C)C[C@H]2C(=O)NC2(CC(C)(C)C2)C(=O)N(C)[C@@H](C2CCCC2)C(=O)N1C [PP1974]	A (a compound having 10 or more and less than 20 is denoted as A)	A (a compound having 10 or more and less than 20 is denoted as A)		
7.12	CCO[C@@H]1C[C@H]2C(=O)NC3(CCC3)C(=O)N(C)[C@@H](C3CCCC3)C(=O)N(C)[C@H](C(=O)N3CCOCC3)CC(=O)N(C)[C@@H](CC(C)C)C(=O)N[C@@H]([C@@H](C)CC)C(=O)N(C)CC(=O)N(C)[C@H]3CCCCCN(C3=O)[C@@H](Cc3ccc4sccc4c3)C(=O)N(C)CC(=O)N[C@@H](CCc3cc(F)c(C(F)(F)F)c(F)c3)C(=O)N2C1 [PP0920]			B (a compound having 3 or more and less than 10 is denoted as B)	B (a compound having 3 or more and less than 10 is denoted as B)
7.63	CCC[C@H]1C(=O)N[C@@H]([C@@H](C)CC)C(=O)N[C@@H](C)C(=O)N(C)[C@H]2C/C=C\CCN(C2=O)[C@@H](Cc2ccc(C(F)(F)F)cc2)C(=O)N(C)CC(=O)N[C@@H](CCc2cc(F)c(C(F)(F)F)c(F)c2)C(=O)N2C[C@H](OCC)C[C@H]2C(=O)NC2(CC(C)(C)C2)C(=O)N(C)[C@@H](C2CCCC2)C(=O)N(C)[C@H](C(=O)N(C)C)CC(=O)N1C [PP1927]	A (a compound having 10 or more and less than 20 is denoted as A)	A (a compound having 10 or more and less than 20 is denoted as A)		
7.12	CCC[C@H]1C(=O)N[C@@H]([C@@H](C)CC)C(=O)N(C)CC(=O)N(C)[C@H]2C/C=C\CCN(C2=O)[C@@H](Cc2ccc(C(F)(F)F)cc2)C(=O)N(C)CC(=O)N[C@@H](CCc2ccc(C(F)(F)F)c(OC)c2)C(=O)N2C[C@H](OCC)C[C@H]2C(=O)NC2(CC(C)(C)C2)C(=O)N(C)[C@@H](CC2CC2)C(=O)N(C)[C@H](C(=O)N(C)C)CC(=O)N1C [PP2809]			A (a compound having 10 or more and less than 20 is denoted as A)	A (a compound having 10 or more and less than 20 is denoted as A)
8.36	CCCN1C(=O)[C@@H]2CCN2C(=O)CN(C)C(=O)[C@H]([C@@H](C)CC)NC(=O)[C@H](CC(C)C)N(C)C(=O)C[C@@H](C(=O)N2CCOCC2)N(C)C(=O)[C@H](C2CCCC2)N(C)C(=O)C2(CCC2)NC(=O)[C@@H]2CC(F)(F)CN2C(=O)[C@H](CCc2ccc(C(F)(F)F)c(Cl)c2)NC(=O)CN(C)C(=O)[C@@H]1Cc1ccc(C(F)(F)F)cc1 [PP0409] ([NMeL]I[Sar][Aze][NPrPhe(4-CF3)][Sar][hPhe(3-Cl-4-CF3)][Pro(4,4-F2)][Ac4c][NMeGly(cPent)][NMeD]-Morpholide; lactam N-11)	C (A compound having a KD ratio of 0.1 or more and less than 3 is denoted as C)	C (A compound having a KD ratio of 0.1 or more and less than 3 is denoted as C)		
7.88	CCCN1C(=O)CN(C)C(=O)CN(C)C(=O)[C@H]([C@@H](C)CC)NC(=O)[C@H](CC(C)C)N(C)C(=O)C[C@@H](C(=O)N2CCOCC2)N(C)C(=O)[C@H](C2CCCC2)N(C)C(=O)C2(CCCC2)NC(=O)[C@@H]2COCCN2C(=O)[C@H](CCc2ccc(C(F)(F)F)c(Cl)c2)NC(=O)CN(C)C(=O)[C@@H]1Cc1ccc(C(F)(F)F)cc1 [PP0265] ([NMeL]I[Sar][Sar][NPrPhe(4-CF3)][Sar][hPhe(3-Cl-4-CF3)][Morpholine(3S-CO)][Ac5c][NMeGly(cPent)][NMeD]-Morpholide; lactam N-11)			B (a compound having 3 or more and less than 10 is denoted as B)	C (A compound having a KD ratio of 0.1 or more and less than 3 is denoted as C)
8.62	CC[C@H](C)[C@@H]1NC(=O)[C@@H]2CCCCCc3ccc(cc3)C[C@@H](C(=O)N(C)CC(=O)N[C@@H](CCc3ccc(C(F)(F)F)c(OC)c3)C(=O)N3CC4(CC4)C[C@H]3C(=O)NC3(CC(C)(C)C3)C(=O)N(C)[C@@H](C3CCCC3)C(=O)N(C)[C@H](C(=O)N(C)C)CC(=O)N2C)N2CC/C=C\C[C@@H](C2=O)N(C)C(=O)CN(C)C1=O [PP3074]			A (a compound having 10 or more and less than 20 is denoted as A)	A (a compound having 10 or more and less than 20 is denoted as A)
7.73	C=CCCCC[C@H]1C(=O)N[C@@H]([C@@H](C)CC)C(=O)N(C)CC(=O)N(C)[C@H]2CCCCN(C2=O)[C@@H](Cc2ccc(C(F)(F)F)cc2)C(=O)N(C)CC(=O)N[C@@H](CCc2cc(F)c(C(F)(F)F)c(F)c2)C(=O)N2C[C@H](OCC)C[C@H]2C(=O)N[C@](C)(CC=C)C(=O)N(C)[C@@H](C2CCCC2)C(=O)N(C)[C@H](C(=O)N2CCOCC2)CC(=O)N1C [PP0877]			C (A compound having a KD ratio of 0.1 or more and less than 3 is denoted as C)	B (a compound having 3 or more and less than 10 is denoted as B)
6.86	CCO[C@@H]1C[C@H]2C(=O)NC3(CCC3)C(=O)N(C)[C@@H](C3CCCC3)C(=O)N(C)[C@H](C(=O)N3CCOCC3)CC(=O)N(C)[C@@H](CC(C)C)C(=O)N[C@@H]([C@@H](C)CC)C(=O)N(C)CC(=O)N(C)[C@H]3CCCCCN(C3=O)[C@@H](Cc3ccc4ccsc4c3)C(=O)N(C)CC(=O)N[C@@H](CCc3cc(F)c(C(F)(F)F)c(F)c3)C(=O)N2C1 [PP0921]			B (a compound having 3 or more and less than 10 is denoted as B)	B (a compound having 3 or more and less than 10 is denoted as B)
7.22	CCCOC[C@H]1C(=O)N[C@@H]([C@@H](C)CC)C(=O)N(C)CC(=O)N(C)[C@H]2C/C=C\CCN(C2=O)[C@@H](CC2CCC(F)(F)CC2)C(=O)N(C)CC(=O)N[C@@H](CCc2ccc(C(F)(F)F)c(OC)c2)C(=O)N2C[C@H](OCC)C[C@H]2C(=O)N(C)C2(CCC2)C(=O)N(C)[C@@H](C2CCCC2)C(=O)N(C)[C@H](C(=O)N(C)C)CC(=O)N1C [PP2350]	A (a compound having 10 or more and less than 20 is denoted as A)	A (a compound having 10 or more and less than 20 is denoted as A)		
